Data taken from PubChem BioAssay (NCI).
Values joined by “and” are separate entries in the source; they are usually repeats but may differ in a detail not shown here. Equal values may be shown once.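 How tested: cells in 96-well plates exposed to compound for 48 hours at five concentrations. Here, GI50 denotes the concentration required for 50% inhibition of growth. TGI denotes the concentration required for complete inhibition of growth.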

Legend:
Assay in all cases: DTP human tumour cell line panel, 48 h
HL-60(TB) leukemia = tested on: HL-60(TB) leukemia
K-562 leukemia = tested on: K-562 leukemia
KM12 colon = tested on: KM12 colon
OVCAR-3 ovarian = tested on: OVCAR-3 ovarian
OVCAR-4 ovarian = tested on: OVCAR-4 ovarian
RPMI-8226 leukemia = tested on: RPMI-8226 leukemia
RXF 393 renal = tested on: RXF 393 renal
SF-268 CNS = tested on: SF-268 CNS
SK-OV-3 ovarian = tested on: SK-OV-3 ovarian
SN12C renal = tested on: SN12C renal

Work on `CC(C)(C)NC(=O)[C@H]1C[C@H]2CCCC[C@H]2CN1C[C@@H](O)[C@H](Cc1ccccc1)NC(=O)[C@H](CC(N)=O)NC(=O)c1ccc2ccccc2n1` yielded a GI50 (HL-60(TB) leukemia) of 4.22 µM, a TGI (HL-60(TB) leukemia) of 26.3 µM and a GI50 (K-562 leukemia) of 8.51 µM. For the same molecule, the TGI (K-562 leukemia) was 24.4 µM, the GI50 (KM12 colon) was 14 µM and the TGI (KM12 colon) was 34.8 µM. It also gave a GI50 (OVCAR-3 ovarian) of 13.5 µM, a TGI (OVCAR-3 ovarian) of 33.5 µM and a GI50 (OVCAR-4 ovarian) of 14 µM. For the same molecule, the TGI (OVCAR-4 ovarian) was 31.5 µM, the GI50 (RPMI-8226 leukemia) was 3.5 µM and the TGI (RPMI-8226 leukemia) was 14.8 µM. It also gave a GI50 (RXF 393 renal) of 12.5 µM, a TGI (RXF 393 renal) of 32.1 µM and a GI50 (SF-268 CNS) of 13 µM. The TGI (SF-268 CNS) was 30.1 µM, the GI50 (SK-OV-3 ovarian) was 18.9 µM and the TGI (SK-OV-3 ovarian) was 42.9 µM. The GI50 (SN12C renal) was 13.9 µM and the TGI (SN12C renal) was 27.8 µM.
`O=C(O)CSc1ncccc1[N+](=O)[O-]` was tested, and the TGI (HL-60(TB) leukemia) was > 100 µM, the TGI (K-562 leukemia) was > 100 µM and the TGI (KM12 colon) was > 100 µM. For the same molecule, the TGI (OVCAR-3 ovarian) was > 100 µM, the TGI (OVCAR-4 ovarian) was > 100 µM and the TGI (RXF 393 renal) was > 100 µM. The TGI (SF-268 CNS) was > 100 µM, the TGI (SK-OV-3 ovarian) was > 100 µM and the TGI (SN12C renal) was > 100 µM.
For `CSc1ccc(/C=C2\C=C(CC(=O)NCc3ccc(C(=O)c4ccccc4)cc3)c3cc(F)ccc32)cc1`, the GI50 (HL-60(TB) leukemia) was 0.0409 µM, the TGI (HL-60(TB) leukemia) was 0.208 µM and the GI50 (K-562 leukemia) was 0.0393 µM. The TGI (K-562 leukemia) was > 100 µM, the GI50 (KM12 colon) was 0.0335 µM and the TGI (KM12 colon) was 1.48 µM. The GI50 (OVCAR-3 ovarian) was 0.0245 µM, the TGI (OVCAR-3 ovarian) was 0.0643 µM and the GI50 (OVCAR-4 ovarian) was 0.127 µM. For the same molecule, the TGI (OVCAR-4 ovarian) was 20.2 µM, the GI50 (RPMI-8226 leukemia) was 0.0648 µM and the TGI (RPMI-8226 leukemia) was > 68.3 µM. The GI50 (RXF 393 renal) was 0.0307 µM, the TGI (RXF 393 renal) was 0.292 µM and the GI50 (SF-268 CNS) was 0.138 µM. For the same molecule, the TGI (SF-268 CNS) was 15.1 µM, the GI50 (SK-OV-3 ovarian) was 0.0399 µM and the TGI (SK-OV-3 ovarian) was 0.704 µM. The GI50 (SN12C renal) was 0.059 µM and the TGI (SN12C renal) was 23 µM.
`CCN(CC)CCNc1n[n+]([O-])c2ccccc2[n+]1[O-]` was tested, and the TGI (HL-60(TB) leukemia) was 7.61 µM and 8.95 µM, the TGI (K-562 leukemia) was 6.45 µM and 18.5 µM and the TGI (KM12 colon) was 25.2 µM and 29 µM. For the same molecule, the TGI (OVCAR-3 ovarian) was 26.2 µM, the TGI (OVCAR-4 ovarian) was 11.2 µM and 73.6 µM and the TGI (RPMI-8226 leukemia) was 18.9 µM and 20.5 µM. The TGI (RXF 393 renal) was 25.4 µM and 42.7 µM, the TGI (SF-268 CNS) was 48.4 µM and > 100 µM and the TGI (SK-OV-3 ovarian) was 32.4 µM. The TGI (SN12C renal) was 19.1 µM and 18.9 µM.
`CC(C)Oc1cc(O)c2c(c1)OCC=C2CCC(=O)O` was tested, and the TGI (HL-60(TB) leukemia) was 42 µM, the TGI (K-562 leukemia) was > 100 µM and the TGI (KM12 colon) was > 100 µM. For the same molecule, the TGI (OVCAR-3 ovarian) was > 100 µM, the TGI (OVCAR-4 ovarian) was > 100 µM and the TGI (RPMI-8226 leukemia) was 69.3 µM. The TGI (RXF 393 renal) was > 100 µM, the TGI (SF-268 CNS) was > 100 µM and the TGI (SK-OV-3 ovarian) was > 100 µM. For the same molecule, the TGI (SN12C renal) was 69.3 µM.
`COc1cc2nc(-c3ccc(C(F)(F)F)cc3)cc(OCCCN3CCCCC3)c2cc1OC` showed a GI50 (HL-60(TB) leukemia) of 2.91 µM, a TGI (HL-60(TB) leukemia) of 18.3 µM and a GI50 (K-562 leukemia) of 0.578 µM. For the same molecule, the TGI (K-562 leukemia) was 10.4 µM, the GI50 (KM12 colon) was 2.92 µM and the TGI (KM12 colon) was 26.9 µM. It also gave a GI50 (OVCAR-3 ovarian) of 2.44 µM, a TGI (OVCAR-3 ovarian) of 15.4 µM and a GI50 (OVCAR-4 ovarian) of 2.91 µM. It also gave a TGI (OVCAR-4 ovarian) of 31.3 µM, a GI50 (RXF 393 renal) of 1.09 µM and a TGI (RXF 393 renal) of 4.26 µM. The GI50 (SF-268 CNS) was 3.76 µM, the TGI (SF-268 CNS) was 24.6 µM and the GI50 (SK-OV-3 ovarian) was 2.3 µM. It also gave a TGI (SK-OV-3 ovarian) of 23.3 µM, a GI50 (SN12C renal) of 0.668 µM and a TGI (SN12C renal) of 15.8 µM.
Work on `Cc1cc(-c2nnc3n2CCCCC3)c(C)n1-c1ccc(Cl)c(Cl)c1` yielded a GI50 (HL-60(TB) leukemia) of 20.6 µM, a TGI (HL-60(TB) leukemia) of 61.2 µM and a GI50 (K-562 leukemia) of 5.14 µM. For the same molecule, the TGI (K-562 leukemia) was 39.3 µM, the GI50 (KM12 colon) was 16.6 µM and the TGI (KM12 colon) was 32 µM. The GI50 (OVCAR-3 ovarian) was 10.2 µM, the TGI (OVCAR-3 ovarian) was 23.7 µM and the GI50 (OVCAR-4 ovarian) was 8.4 µM. It also gave a TGI (OVCAR-4 ovarian) of 57.5 µM, a GI50 (RPMI-8226 leukemia) of 9.53 µM and a TGI (RPMI-8226 leukemia) of 39.9 µM. It also gave a GI50 (RXF 393 renal) of 8.42 µM, a TGI (RXF 393 renal) of 29.8 µM and a GI50 (SF-268 CNS) of 17.8 µM. The TGI (SF-268 CNS) was 36.6 µM, the GI50 (SK-OV-3 ovarian) was 19.2 µM and the TGI (SK-OV-3 ovarian) was 45.7 µM. It also gave a GI50 (SN12C renal) of 14.7 µM and a TGI (SN12C renal) of 40.1 µM.
With `N.N.N.N.N.N.O=N[O-].[Br-].[Co+3].[Co+3].[OH3+].[OH3+]` the GI50 (HL-60(TB) leukemia) was > 100 µM, the TGI (HL-60(TB) leukemia) was > 100 µM and the GI50 (K-562 leukemia) was > 100 µM. The TGI (K-562 leukemia) was > 100 µM, the GI50 (KM12 colon) was > 100 µM and the TGI (KM12 colon) was > 100 µM. The GI50 (RPMI-8226 leukemia) was > 100 µM, the TGI (RPMI-8226 leukemia) was > 100 µM and the GI50 (RXF 393 renal) was > 100 µM. The TGI (RXF 393 renal) was > 100 µM, the GI50 (SF-268 CNS) was > 100 µM and the TGI (SF-268 CNS) was > 100 µM. The GI50 (SK-OV-3 ovarian) was > 100 µM, the TGI (SK-OV-3 ovarian) was > 100 µM and the GI50 (SN12C renal) was > 100 µM. The TGI (SN12C renal) was > 100 µM.
